According to US20220026411A1, “ANALYTICAL METHODS AND ARRAYS FOR USE IN THE SAME” (SENZAGEN AB, priority 2019, published 2022):
Read-outs that look alike come from different tables or passages of the source.

Assays:
[1] = cited from earlier work; for True group: true group belonging of external test chemicals; for Function in study: training data set, as defined by available literature and expert consensus
SenzaCell [2] = assay: GARDair assay: gene expression signature (GRPS, 28 genes) of chemically exposed DC-like cells, SVM classification; conditions: finalized GARDair prediction model; RS if mean SVM decision value (n=3) > 0; 24 h exposure at GARD input concentration
Method: (§1) All exposures were performed in repeated triplicate experiments in a controlled setting, thus generating a coherent dataset with high statistical power optimized for subsequent biomarker discovery.
(§2) A prediction model was trained and frozen, based on a Support Vector Machine (SVM), using the samples of the training data set with a binary “function in study” (respiratory sensitizer/non-respiratory sensitizer) as the dependent variable, and the gene expression values of the GRPS as the independent variables (i.e. predictors), see also Table 4.
(§3) Having established an optimized prediction model and associated protocols, the assay was challenged with two sets of external samples, referred to as test data sets.
(§4) The human myeloid leukemia-derived cell line SenzaCell (available through ATCC), acting as an in vitro model of human Dendritic Cell (DC), is maintained in a-MEM (Thermo Scientific Hyclone, Logan, Utah) supplemented with 20% (volume/volume) fetal calf serum (Life Technologies, Carlsbad, Calif.) and 40 ng/ml recombinant human Granulocyte Macrophage Colony Stimulating Factor (rhGM-CSF) (Miltenyi Biotec, Germany). A media change during expansion is performed every 3-4 days. Working stocks of cultures are grown for a maximum of 16 passages or two months after thawing. For chemical stimulation of cells, exposed cells are incubated for 24 h at 37° C., 5% CO2 and 95% humidity.
(§5) Some Test Substances were poorly dissolved in cell media; therefore, the maximum soluble concentration was assessed as well. The Test Substance that was to be tested was titrated to concentrations ranging from 1 μM to the maximum soluble concentration in cell media. For freely soluble Test Substances, 500 μM was set as the upper limit of the titration range. For Test Substances dissolved in DMSO, the in-well concentration of DMSO was 0.1%. After incubation for 24 h at 37° C., 5% CO2 and 95% humidity, harvested cells were stained with the viability marker Propidium Iodide (PI) (BD Bioscience, USA) and analyzed by flow cytometry. PI-negative cells were defined as viable, and the relative viability of cells stimulated with each concentration in the titration range was calculated as
(§6) For non-toxic Test Substances, a concentration of 500 μM was used if possible. For non-toxic Test Substances that were insoluble at 500 μM in cell media, the highest soluble concentration was used. Whichever of these three criteria was met, only one concentration will be used for gene expression analysis. The concentration to be used for any given chemical was termed the ‘GARD input concentration’.
(§7) Once the GARD input concentration for Test Substances to be assayed was established, the cells were stimulated again as described above, this time only using the GARD input concentration. All assessments of Test Substances and Benchmark Controls were assayed in biological triplicates, performed at different time-points and using different cell cultures. After incubation for 24 h at 37° C., 5% CO2 and 95% humidity, cell culture was lysed in TRlzol reagent (Life Technologies) and stored at −20° C. until RNA was extracted. In parallel, a small sample of stimulated cells was taken for PI staining and analysis with flow cytometry, to ensure the expected relative viability of stimulated cells was reached.

SenzaCell [3] = test system: SenzaCell
Method: as §1, §2, §3, §4, §5, §6, §7

Prediction Test set 1 (SenzaCell [2])	SMILES	True group [1]	also measured
–	Sc1nc2ccccc2s1 [2-Mercaptobenzothiazole]	NRS	–
–	Nc1ccccc1O [2-aminophenol]	–	Function in study [1]: SS/NRS
NRS	O=C(O)c1ccc(O)cc1 [4-Hydroxybenzoic acid]	NRS	–
NRS	OCC=Cc1ccccc1 [Cinnamyl alcohol]	NRS	–
–	C[S+](C)[O-] [DMSO]	NRS	Prediction Test set 2 (SenzaCell [2]): NRS
NRS	C=CCc1ccc(O)c(OC)c1 [Eugenol]	NRS	–
NRS	OCC(O)CO [Glycerol]	–	–
NRS	CC=Cc1ccc(O)c(OC)c1 [Isoeugenol]	NRS	–
NRS	CCCCCCCC(=O)O [Octanoic acid]	NRS	–
–	Oc1ccccc1 [Phenol]	–	Prediction Test set 1 (SenzaCell [3]): NRS
NRS	Oc1cccc(O)c1 [Resorcinol]	–	–
–	O=C(O)c1ccccc1O [Salicylic acid]	NRS	–
–	Clc1ccccc1 [chlorobenzene]	–	Prediction Test set 2 (SenzaCell [2]): NRS
–	CCCCCCC(C=O)=Cc1ccccc1 [hexylcinnamic aldehyde]	–	Function in study [1]: SS/NRS
–	CC1(C)S[C@@H]2[C@H](NC(=O)Cc3ccccc3)C(=O)N2[C@H]1C(=O)O [penicillin G]	–	Function in study [1]: SS/NRS
–	[K+].[K+].[O]=[Cr](=[O])([O-])[O][Cr](=[O])(=[O])[O-] [potassium dichromate]	–	Function in study [1]: SS/NRS

SMILES	Prediction Test set 1 (SenzaCell [2])	True group [1]	also measured
O=Cc1ccccc1 [Benzaldehyde]	NRS	–	–
O=[N+]([O-])c1ccc(Cl)c([N+](=O)[O-])c1 [DNCB]	NRS	NRS	Prediction Test set 2 (SenzaCell [2]): NRS
CCOC(=O)c1ccccc1C(=O)OCC [Diethyl phthalate]	NRS	NRS	–
Nc1ccc(N)cc1 [PPD]	NRS	NRS	Prediction Test set 2 (SenzaCell [2]): NRS
CCCCCCCCCCCCOS(=O)(=O)[O-].[Na+] [SDS]	NRS	NRS	–
